In patent US9700516B2, “Compositions and methods for reducing overdose” (priority 2014, dated 2017):

Test: Effect of alkalinizing agents on the pH of a solution of 0.1 N HCl with a starting pH of 2.0
Type: physicochemical
Method: Various alkalinizing agents were added to a solution of 0.1 N HCl with a starting pH of 2.0 and the pH of the solution was tested at different time points.

`[O]=[Mg]` [MgO, magnesium oxide] showed a pH (40 mg per 320 mL, 0 min) of 2.01, a pH (40 mg per 320 mL, 1 min) of 2.01 and a pH (40 mg per 320 mL, 2 min) of 2.03. For the same compound, the pH (40 mg per 320 mL, 3 min) was 2.08, the pH (40 mg per 320 mL, 4 min) was 2.10 and the pH (40 mg per 320 mL, 5 min) was 2.13. The pH (40 mg per 320 mL, 6 min) was 2.16, the pH (40 mg per 320 mL, 7 min) was 2.19 and the pH (40 mg per 320 mL, 8 min) was 2.22. For the same compound, the pH (40 mg per 320 mL, 9 min) was 2.23, the pH (40 mg per 320 mL, 10 min) was 2.24 and the pH (40 mg per 320 mL, 20 min) was 2.30. It also gave a pH (40 mg per 320 mL, 30 min) of 2.33, a pH (40 mg per 320 mL, 40 min) of 2.39 and a pH (40 mg per 320 mL, 50 min) of 2.34. It also gave a pH (40 mg per 320 mL, 60 min) of 2.34, a pH (80 mg per 320 mL, 0 min) of 1.99 and a pH (80 mg per 320 mL, 1 min) of 2.00. It also gave a pH (80 mg per 320 mL, 2 min) of 2.02, a pH (80 mg per 320 mL, 3 min) of 2.05 and a pH (80 mg per 320 mL, 4 min) of 2.06. For the same compound, the pH (80 mg per 320 mL, 5 min) was 2.08, the pH (80 mg per 320 mL, 6 min) was 2.10 and the pH (80 mg per 320 mL, 7 min) was 2.12. It also gave a pH (80 mg per 320 mL, 8 min) of 2.13, a pH (80 mg per 320 mL, 9 min) of 2.15 and a pH (80 mg per 320 mL, 10 min) of 2.17. It also gave a pH (80 mg per 320 mL, 20 min) of 2.30, a pH (80 mg per 320 mL, 30 min) of 2.40 and a pH (80 mg per 320 mL, 40 min) of 2.48. The pH (80 mg per 320 mL, 50 min) was 2.55, the pH (80 mg per 320 mL, 60 min) was 2.63 and the pH (80 mg powder/200 ml, 4 min) was 6.21. For the same compound, the pH (80 mg powder/200 ml, 5 min) was 6.67, the pH (80 mg powder/200 ml, 6 min) was 7.22 and the pH (80 mg powder/200 ml, 7 min) was 7.98. The pH (80 mg powder/200 ml, 8 min) was 8.42, the pH (80 mg powder/200 ml, 9 min) was 8.44 and the pH (80 mg powder/200 ml, 10 min) was 10.13. It also gave a pH (80 mg powder/200 ml, 20 min) of 10.13, a pH (80 mg powder/200 ml, 30 min) of 8.66 and a pH (80 mg powder/200 ml, 40 min) of 10.13. For the same compound, the pH (80 mg, Granular/200 ml, 4 min) was 2.75, the pH (80 mg, Granular/200 ml, 5 min) was 3.37 and the pH (80 mg, Granular/200 ml, 6 min) was 5.50. The pH (80 mg, Granular/200 ml, 7 min) was 6.04, the pH (80 mg, Granular/200 ml, 8 min) was 6.38 and the pH (80 mg, Granular/200 ml, 9 min) was 6.74. The pH (80 mg, Granular/200 ml, 10 min) was 7.05, the pH (80 mg, Granular/200 ml, 20 min) was 7.50 and the pH (80 mg, Granular/200 ml, 30 min) was 9.14. For the same compound, the pH (100 mg powder/200 ml, 4 min) was 2.37, the pH (100 mg powder/200 ml, 5 min) was 2.37 and the pH (100 mg powder/200 ml, 6 min) was 3.52. For the same compound, the pH (100 mg powder/200 ml, 7 min) was 3.52, the pH (100 mg powder/200 ml, 8 min) was 3.52 and the pH (100 mg powder/200 ml, 9 min) was 3.52. For the same compound, the pH (100 mg powder/200 ml, 10 min) was 3.52, the pH (100 mg powder/200 ml, 20 min) was 5.00 and the pH (100 mg powder/200 ml, 30 min) was 6.50. The pH (100 mg powder/200 ml, 40 min) was 8.09, the pH (120 mg powder/200 ml, 4 min) was 6.97 and the pH (120 mg powder/200 ml, 5 min) was 8.21. It also gave a pH (120 mg powder/200 ml, 6 min) of 8.21, a pH (120 mg powder/200 ml, 7 min) of 8.21 and a pH (120 mg powder/200 ml, 8 min) of 8.21. It also gave a pH (120 mg powder/200 ml, 9 min) of 8.21, a pH (120 mg powder/200 ml, 10 min) of 8.21 and a pH (120 mg powder/200 ml, 20 min) of 8.21. It also gave a pH (120 mg powder/200 ml, 30 min) of 8.21, a pH (160 mg per 320 mL, 0 min) of 1.99 and a pH (160 mg per 320 mL, 1 min) of 2.05. The pH (160 mg per 320 mL, 2 min) was 2.14, the pH (160 mg per 320 mL, 3 min) was 2.24 and the pH (160 mg per 320 mL, 4 min) was 2.35. It also gave a pH (160 mg per 320 mL, 5 min) of 2.47, a pH (160 mg per 320 mL, 6 min) of 2.60 and a pH (160 mg per 320 mL, 7 min) of 2.71. For the same compound, the pH (160 mg per 320 mL, 8 min) was 2.83, the pH (160 mg per 320 mL, 9 min) was 2.95 and the pH (160 mg per 320 mL, 10 min) was 3.07. For the same compound, the pH (160 mg per 320 mL, 20 min) was 8.16, the pH (160 mg per 320 mL, 30 min) was 9.30 and the pH (160 mg per 320 mL, 40 min) was 9.54. The pH (160 mg per 500 mL, 0 min) was 1.98, the pH (160 mg per 500 mL, 1 min) was 2.00 and the pH (160 mg per 500 mL, 2 min) was 2.02. It also gave a pH (160 mg per 500 mL, 3 min) of 2.05, a pH (160 mg per 500 mL, 4 min) of 2.07 and a pH (160 mg per 500 mL, 5 min) of 2.12. The pH (160 mg per 500 mL, 6 min) was 2.15, the pH (160 mg per 500 mL, 7 min) was 2.18 and the pH (160 mg per 500 mL, 8 min) was 2.22. The pH (160 mg per 500 mL, 9 min) was 2.24, the pH (160 mg per 500 mL, 10 min) was 2.27 and the pH (160 mg per 500 mL, 20 min) was 2.54. It also gave a pH (160 mg per 500 mL, 30 min) of 2.62, a pH (160 mg per 500 mL, 40 min) of 2.74 and a pH (160 mg per 500 mL, 50 min) of 2.86. The pH (160 mg per 500 mL, 60 min) was 2.96 and the “effect on pH of the solution” value (80-120 mg/200 ml powder and 80 mg granular/200 ml) was “rapidly raise the pH of the solution to neutral or higher”.

Compound `CC(=O)[O-].[Na+]` [Sodium Acetate, sodium acetate] has a pH (200 mg in 200 ml, 10 min) of 4.73, a pH (200 mg in 200 ml, 20 min) of 4.96 and a pH (200 mg in 200 ml, 30 min) of 5.08. For the same compound, the pH (200 mg in 200 ml, 40 min) was 5.21, the pH (200 mg in 200 ml, 50 min) was 5.34 and the pH (200 mg in 200 ml, 60 min) was 5.34.

With `O=C([O-])[O-].[Mg+2]` [Magnesium Carbonate, magnesium carbonate] the pH (80 mg in 200 ml, 0 min) was 2.73, the pH (80 mg in 200 ml, 1 min) was 4.78 and the pH (80 mg in 200 ml, 2 min) was 6.09. For the same compound, the pH (80 mg in 200 ml, 3 min) was 6.57, the pH (80 mg in 200 ml, 4 min) was 7.44 and the pH (80 mg in 200 ml, 5 min) was 8.64. The pH (80 mg in 200 ml, 6 min) was 8.92, the pH (80 mg in 200 ml, 7 min) was 9.03 and the pH (80 mg in 200 ml, 8 min) was 9.09. For the same compound, the pH (80 mg in 200 ml, 9 min) was 9.13, the pH (80 mg in 200 ml, 10 min) was 9.17 and the pH (80 mg in 200 ml, 20 min) was 9.26. For the same compound, the pH (80 mg in 200 ml, 30 min) was 9.26, the “pH of the solution” value (80 mg in 200 ml, 30 minute timecourse) was “above 9” and the pH (100 mg in 200 ml, 10 min) was 3.05. For the same compound, the pH (100 mg in 200 ml, 20 min) was 3.05, the pH (100 mg in 200 ml, 30 min) was 3.05 and the pH (100 mg in 200 ml, 40 min) was 3.05. It also gave a pH (100 mg in 200 ml, 50 min) of 3.05 and a pH (100 mg in 200 ml, 60 min) of 3.05.
